Experimental data as given in patent US8765465B2, “Efficient production and use of highly cardiogenic progenitors and cardiomyocytes from embryonic and induced pluripotent stem cells” (Kyoto University, priority 2008, dated 2014).

Experiments:
[1] = test system: Flk1+ mesoderm cells from EMG7 mouse ES cells; test: Cardiomyocyte induction from ES cell-derived Flk1+ mesoderm cells on OP9 (experiment 1); format: cell-based; conditions: added to Flk1+ cells
Procedure: Undifferentiated ES cells were cultured on OP9 cells or type IV collagen (Col. IV)-coated dishes (ES-d0) for 96-108 h in differentiation medium (see Methods) to induce differentiation to Flk1^+ cells. Flk1^+/E-cadherin^− mesoderm cells obtained by FACS were plated onto OP9 stroma cells to induce further differentiation to cardiomyocytes (designated as Flk-d0). FCV cells appeared at Flk-d2 as Flk1^+/CXCR4^+/vascular endothelial cadherin^− population. Beating colonies started to be observed by Flk-d4. Appearance of alpha-MHC promoter-driven GFP^+ cardiomyocytes were evaluated and collected at Flk-d6. Experiment 1: differentiation from mesoderm to cardiomyocytes. […] Experiment 2: differentiation from undifferentiated ES cells to mesoderm. […] Experiment 3: differentiation from mesoderm to cardiac progenitors. […] Experiment 4: differentiation from cardiac progenitors to cardiomyocytes.
After 96-108 h of ES cell differentiation, cultured cells were harvested and stained with allophycocyanin (APC)-conjugated AVAS12 and FITC-conjugated ECCD2. […] PKH-negative populations were analyzed and sorted as ES cell-derived cells. […] For FACS for cardiomyocytes, cells were harvested after 6 days culture of Flk1^+ cells on OP9 cells (Flk-d6), GFP^+ population was evaluated and sorted as differentiated cardiomyocytes.

Flk1+ cells = test: Mesoderm-specific treatment Flk-d0-2, cardiomyocytes at Flk-d6 (experiment 5); format: cell-based, mouse; conditions: added only Flk-d0-2
Source text: Beating colonies started to be observed by Flk-d4. […] Experiment 1: differentiation from mesoderm to cardiomyocytes. […] Experiment 2: differentiation from undifferentiated ES cells to mesoderm. […] Experiment 3: differentiation from mesoderm to cardiac progenitors. […] Experiment 4: differentiation from cardiac progenitors to cardiomyocytes.
Medium was replaced every 2 days.

11R-VIVIT
effect on cardiomyocyte induction (cTnT staining) [1]: no significant effect

TGF-β
cardiomyocytes at Flk-d6 after mesoderm-specific addition (Flk1+ cells): significant decrease

C=CC[C@@H]1/C=C(\C)C[C@H](C)C[C@H](OC)[C@H]2O[C@@](O)(C(=O)C(=O)N3CCCC[C@H]3C(=O)O[C@H](/C(C)=C/[C@@H]3CC[C@@H](O)[C@H](OC)C3)[C@H](C)[C@@H](O)CC1=O)[C@H](C)C[C@@H]2OC [FK506]
effect on cardiomyocyte induction (cTnT staining) [1]: no significant effect

B1: wnt3a: factor from R&D Systems (protein, UniProt P56704 19-352, looked up)
Protein Wnt-3a: SYPIWWSLAVGPQYSSLGSQPILCASIPGLVPKQLRFCRNYVEIMPSVAEGIKIGIQECQHQFRGRRWNCTTVHDSLAIFGPVLDKATRESAFVHAIASAGVAFAVTRSCAEGTAAICGCSSRHQGSPGKGWKWGGCSEDIEFGGMVSREFADARENRPDARSAMNRHNNEAGRQAIASHMHLKCKCHGLSGSCEVKTCWWSQPDFRAIGDFLKDKYDSASEMVVEKHRESRGWVETLRPRYTYFKVPTERDLVYYEASPNFCEPNPETGSFGTRDRTCNVSSHGIDGCDLLCCGRGHNARAERRREKCRCVFHWCCYVSCQECTRVYDVHTCK
cardiomyocytes at Flk-d6 after mesoderm-specific addition (Flk1+ cells): significant decrease

B2: Dkk1: factor from R&D Systems (protein, UniProt O94907 32-266, looked up)
Dickkopf-related protein 1: TLNSVLNSNAIKNLPPPLGGAAGHPGSAVSAAPGILYPGGNKYQTIDNYQPYPCAEDEECGTDEYCASPTRGGDAGVQICLACRKRRKRCMRHAMCCPGNYCKNGICVSSDQNHFRGEIEETITESFGNDHSTLDGYSRRTTLSSKMYHTKGQEGSVCLRSSDCASGLCCARHFWSKICKPVLKEGQVCTKHRRKGSHGLEIFQRCYCGEGLSCRIQKDHHQASNSSRLHTCQRH
cardiomyocytes at Flk-d6 after mesoderm-specific addition (Flk1+ cells): significantly increased | effect on cardiomyocytes relative to that of CSA (Flk1+ cells): much weaker
